Assays:
[1] = tested on: NCTC2472 fibrosarcoma or MDA-MB231 breast cancer cells injected into bone; assay: Spontaneous paw lifting behaviour (pain) in bone cancer model; type: in vivo, mice; settings: day 14 post tumor cell inoculation; dosed at MTD by oral gavage once daily; 4 minutes observation; vehicle 80%
Experimental: Male C3H/HeNCrl mice for the NCTC2472 mouse fibrosarcoma cells (20-25 g, Charles River, Sulzfeld, Germany) or female NMRI Nude mice for the MDA MB 231 human breast cancer cells (Janvier, France) were used. Induction of bone cancer was carried out as previously described (Schwei et al., 1999^1). Induction of general anaesthesia was performed under 4% isoflurane in a mixture of 30% O2 and 70% air (1000 ml/ min). Anaesthesia was then maintained at 2.5% isoflurane for the duration of the surgical procedure. The left hind paw was shaved and disinfected with povidone-iodine followed by 70% ethanol. A superficial 1 cm incision was made over the knee overlaying the patella. The patella ligament was cut, exposing the condyles of the distal femur. A 23-gauge needle was inserted at the level of the intercondylar notch and the intramedullary canal of the femur to create a cavity for injection of the cells. Tumour cells (2.5×10^6 cells/20 μl) were then injected into the bone cavity using a 0.3 ml syringe. To prevent leakage of cells outside the bone, the injection site was sealed with dental acrylic (Paladur, Heraeus Kulzer, GmbH, Wehrheim, Germany) and the wound closed with skin stitches. For the sham-operated group, an identical procedure was followed except that medium without cells was injected. […]

[2] = tested on: NCTC2472 fibrosarcoma or MDA-MB231 breast cancer cells injected into bone; assay: Evaluation of bone destruction by μCT of ipsilateral left hind limbs; type: in vivo, mice; settings: tumor inoculated animals, dosed at MTD; compared with vehicle and sham
Experimental: (§1) Male C3H/HeNCrl mice for the NCTC2472 mouse fibrosarcoma cells (20-25 g, Charles River, Sulzfeld, Germany) or female NMRI Nude mice for the MDA MB 231 human breast cancer cells (Janvier, France) were used. Induction of bone cancer was carried out as previously described (Schwei et al., 1999^1). Induction of general anaesthesia was performed under 4% isoflurane in a mixture of 30% O2 and 70% air (1000 ml/ min). Anaesthesia was then maintained at 2.5% isoflurane for the duration of the surgical procedure. The left hind paw was shaved and disinfected with povidone-iodine followed by 70% ethanol. A superficial 1 cm incision was made over the knee overlaying the patella. The patella ligament was cut, exposing the condyles of the distal femur. A 23-gauge needle was inserted at the level of the intercondylar notch and the intramedullary canal of the femur to create a cavity for injection of the cells. Tumour cells (2.5×10^6 cells/20 μl) were then injected into the bone cavity using a 0.3 ml syringe. To prevent leakage of cells outside the bone, the injection site was sealed with dental acrylic (Paladur, Heraeus Kulzer, GmbH, Wehrheim, Germany) and the wound closed with skin stitches. For the sham-operated group, an identical procedure was followed except that medium without cells was injected.

[3] = tested on: MDA B231 bone homing clone cells; assay: Bone cancer metastasis model, histological sections after 42 days; type: in vivo, mice; settings: po, qd
Experimental: as §1
In the bone cancer metastasis model MDA B231 bone homing clone cells were inoculated into the tibia as described. After 42 days, animals were sacrificed and the amputated paws placed in fixative. The legs were de-calcified and sections cut to determine levels of bone destruction.

[4] = Tissue distribution profile; type: in vivo
[5] = oral gavage, once daily

Compound	percentage of the time the left hind paw was raised (spontaneous paw lifting) [1]	osteolytic bone destruction (μCt reconstructions, FIG. 2) [2]	detectable tumor in histological sections (FIG. 3) ([3]; 100 mg per kg)	signs of tumor cells and bone destruction ([3]; 100 mg per kg)	amount of tumor growth and amount of bone destruction ([3]; dose dependence)	tissue distribution to bone marrow ([4]; in vivo)	blood brain barrier penetration ([4]; intact blood brain barrier)	maximum tolerated dose (MTD) [5]
COc1cc2ncnc3c2cc1OCCCCCN(C)Cc1ccc(Br)cc1N3 [Compound 1, 4,6-ethanediylidenepyrimido[4,5-b][6,1,12]benzoxadiazacyclo-pentadecine, 17-bromo-8,9,10,11,12,13,14,19-octahydro-20-methoxy-13-methyl]	~8%	significantly less bone destruction	detectable tumor is hardly present	no signs of tumor cell not any signs bone destruction	dose dependently reduced	preferential tissue distribution to the bone marrow compartment	ability to cross the intact blood brain barrier	200 mg per kg
COc1cc2ncnc(Nc3ccc(F)c(Cl)c3)c2cc1OCCCN1CCOCC1 [Iressa, reference compound]	more than 35%	Considerable bone loss	–	–	–	–	–	50 mg per kg
